Here are results for five compounds from paper PMC12473165, “Theranostic Potential of a New ^64Cu-Labeled NOTA-R954 Peptide Conjugate for Kinin B1R Expressing Prostate Cancer” (Pharmaceutics, 2025).

For data set [1], the target named is T1, hB1R (Homo sapiens, UniProt P46663).
T1 sequence (P46663 1-353): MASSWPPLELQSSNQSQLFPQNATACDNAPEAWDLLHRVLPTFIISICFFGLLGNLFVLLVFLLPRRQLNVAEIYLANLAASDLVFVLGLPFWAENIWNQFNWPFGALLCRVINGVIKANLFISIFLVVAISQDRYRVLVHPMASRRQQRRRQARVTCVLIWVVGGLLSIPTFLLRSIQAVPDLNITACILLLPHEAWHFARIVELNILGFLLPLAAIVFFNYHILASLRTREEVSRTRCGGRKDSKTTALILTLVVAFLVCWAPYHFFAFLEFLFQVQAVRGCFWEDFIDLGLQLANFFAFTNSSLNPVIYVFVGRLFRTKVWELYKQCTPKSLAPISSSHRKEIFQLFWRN
Nature of the data set: NFAT-eGFP reporter assay in CHO-hB1R-NFAT-eGFP cells. The data set is classed as cell-based. Further details: expressed in transfected cells; host or cells: CHO (hB1R-expressing line, then transduced with NFAT-eGFP reporter). The following applies: means of two independent experiments; for IC50: hB1R-stably expressing CHO-NFAT cells, antagonist potency, read-out: CHO-NFAT IC50 (Table S1); for EC50: hB1R-stably expressing CHO-NFAT-eGFP cells, agonist potency, 16 h stimulation, read-out: CHO-NFAT EC50 (Table S2). The text has this: The pLenti-6V5-NFAT-eGFP vector was generated from the pSIRV-NFAT-eGFP vector (a gift from Peter Steinberger, Addgene plasmid #118031). Briefly, NFAT-eGFP gene was PCR amplified using the following primers: 5′-[…]-3′ and 5′-[…]-3′). The amplified gene was then ligated into the ClaI and AgeI restriction sites of the pLenti-6V5 vector. Lentiviruses were produced using the pLenti-6V5-NFAT-eGFP vector in HEK293T cells and used to transduce a hB1R-expressing CHO cell line, followed by selection with 10 µg/mL blasticidin. […] Clones were grown in 4000 nanowells/well in 24-well plates and re-plated into 96-well plates after initial expansion via the ALS CellCelector™ (Sartorius Corporation, Bohemia, NY, USA). After clonal expansion, individual cell lines were evaluated based on their ratio of stimulated fluorescence to basal expression to determine maximum sensitivity.
Fluorescence assays performed on CHO-hB1R-NFAT-eGFP cells. Target cells were plated at 10,000 cells/well in a 96-well microplate (opaque black wells with clear flat bottom, Thermo Scientific, Rockford, IL, USA) using RPMI 1640 medium with 10% fetal bovine serum (FBS). After 24 h, the medium was replaced by RPMI without FBS and phenol red. […] Fluorescence was measured using a TECAN M1000 (Tecan Group Ltd., Männedorf, Switzerland) multimode microplate reader with excitation at 488 nm and emission at 507 nm. Each data point represents a ratio of two values, divided by the average fluorescence of six control wells. […] Antagonist affinity (Kb) was estimated from functional inhibition curves using the Gaddum (Schild) equation assuming competitive antagonism at human B1R: Kb = [B]/(dose-ratio–1), where [B] is the antagonist concentration, and the dose ratio is EC50 + Compound/EC50.

The target of data set [2] is T1, hB1R. Nature of the data set: Radioligand competition binding on HEK293 cells stably expressing hB1R. The arrangement: expressed in transfected cells; host or cells: QBI-HEK293A (lentiviral transduction, puromycin selection). The following applies: hB1R-stably expressing HEK293 cells, means of two independent experiments.
In a further data set the test system is PC3 xenografts. Put plainly: Peptide receptor radionuclide therapy (PRRT) in PC3 xenograft-bearing mice. The data set is classed as in vivo, mouse. As to conditions: nude mice with s.c. PC3 xenografts, single IV dose 50 µg/kg; 65 MBq. The protocol: Male Nu/Nu nude mice (Crl:NU-Foxn1nu: 4–6 weeks old, Charles River Laboratories, Inc., Wilmington, MA, USA) were subcutaneously (s.c.) inoculated into one or both lower flanks with PCa cells. LNCap cells (10 x 10^6) and PC3 cells (2.5 × 10^6) were suspended in 0.2 mL of a 1:1 (v/v) mixture of antibiotic-free DMEM medium and Matrigel (#356234, Sigma-Aldrich) for injection. Within 10–21 days post-inoculation, solid palpable prostate tumors had developed, and the animals were used for biodistribution, PET imaging, and radiotherapy studies. […]
Therapeutic efficacies of agents were investigated in PC3 xenograft-bearing mice. […] Tumor growth was monitored with a digital vernier caliper using the following formula: length × width^2. The weight of the mice was monitored throughout the study. […] Tumor growth was normalized by calculating the ratio of the tumor volume at each time point to the initial tumor volume measured prior to treatment. […]. […]
Retrieved subcutaneous tumors (5 μm thick sections) were evaluated by H&E and semiquantitative IHC staining of B1R, Ki67 (proliferation), cleaved caspase 3 (apoptosis), CD34 (angiogenesis), and LYVE-1 (lymphangiogenesis). […] Positive Ki67 staining was determined by the nucleus count (Ki-67+ cells/total cells) in sampled fields. […]

For data set [3] the following is noted: mouse, in vivo, iv. The protocol:
To perform ex vivo biodistribution studies, radiolabeled peptides (5–10 MBq; 100 μL) were administered to isoflurane-anaesthetized normal male Balb/c mice through caudal vein injection. Organs were collected 1 h and 4 h post-injections from CO2 inhalation-euthanized animals and were washed, weighted, and radioactivity measured in a gamma counter (Cobra II auto-gamma counter, Packard). The percentage of injected dose per gram of tissue (%ID/g) was then calculated, accounting for decay correction, using external ^64Cu standards. Biodistribution of the radiolabeled peptides was also performed in PCa tumor-bearing nude mice using micro-PET imaging performed on a 7.5 cm axial and 10 cm transaxial field of view LabPET8 small-animal scanner (Gamma Medica-IDEAS Inc., Northridge, CA, USA) in combination with X-ray computer tomography (CT) (MILabs U-CT system, Utrecht, The Netherlands). For this, radiolabeled peptides (6–9 MBq in 200 μL) were delivered by tail-vein injection to isoflurane-anaesthetized mice. PET scans composed of 30 min static acquisition were acquired at 1 h and 20 h after injection. […] To quantify the tumor uptake of the radiotracer, a volume of interest (VOI) was drawn around the center of the tumor. The uptake was determined as the means of the VOI voxels having intensity in the upper quartile.

The mark [4] stands for this setting: binding affinity, read-out: HEK293 IC50 (Table S1).
[5] abbreviates: binding affinity of agonists, read-out: HEK293 IC50 (Table S2).

“And” between values parts separate entries of the source, which are not always exact repeats. Equal entries are not always repeated. Square brackets hold non-standard residues; d marks the D form. Peptide text beside a SMILES is read from it. * marks the point of attachment. NOTA = O=C(O)CN1CCN(CC(=O)O)CCN(CC(=O)*)CC1; Oic = O=C(O)[C@@H]1C[C@@H]2CCCC[C@@H]2N1; d2Nal = N[C@H](Cc1ccc2ccccc2c1)C(=O)O; αMeF = C[C@](N)(Cc1ccccc1)C(=O)O; Orn = NCCC[C@H](N)C(=O)O; βAla = NCCC(=O)O

As for `CC[C@H](C)[C@H](NC(=O)[C@@H](Cc1ccc2ccccc2c1)NC(=O)[C@H](CO)NC(=O)[C@](C)(Cc1ccccc1)NC(=O)CNC(=O)[C@@H]1CCCN1C(=O)C1CC2CCCCC2N1C(=O)[C@H](CCCNC(=N)N)NC(=O)[C@H](CCCN)NC(=O)CN1CCN(CC(=O)O)CCN(CC(=O)O)CC1)C(=O)O` (stereo partly shown) [MAB7020], the results for the IC50 on hB1R [1] and on hB1R [2] (setting [4]) were 0.4 nM and 5 nM, respectively.
Regarding `CNCC(=O)N[C@@H](CCCCNC(=O)CN1CCN(CC(=O)O)CCN(CC(=O)O)CC1)C(=O)N[C@@H](CCCNC(=N)N)C(=O)N1CCC[C@H]1C(=O)N1CCC[C@H]1C(=O)NCC(=O)N[C@@H](Cc1ccccc1)C(=O)N[C@@H](CO)C(=O)N1CCC[C@H]1C(=O)N[C@H](Cc1ccccc1)C(=O)O` [MAB8066], on hB1R [1], the EC50 was 41 nM. Further, the IC50 on hB1R [2] (setting [5]) came out at 40 nM.
Take `CC[C@H](C)[C@H](NC(=O)[C@@H](Cc1ccc2ccccc2c1)NC(=O)[C@H](CO)NC(=O)[C@](C)(Cc1ccccc1)NC(=O)CNC(=O)[C@@H]1CCCN1C(=O)[C@@H]1C[C@@H]2CCCC[C@@H]2N1C(=O)[C@H](CCCNC(=N)N)NC(=O)[C@H](CCCN)NC(=O)CCNC(=O)CN1CCN(CC(=O)O)CCN(CC(=O)O)CC1)C(=O)O` [^64Cu/NOTA-βAla-R954, metal not drawn] ({NOTA-βAla}-[Orn]R[Oic]PG[αMeF]S[d2Nal]I-OH): the “observable toxicity (body weight)” value in the data set on PC3 xenografts is reported as “did not induce any observable toxicity”. Also, in data set [3], the “clearance from the bloodstream” value is “rapid clearance”.
In the case of `N=C(N)NCCC[C@H](NC(=O)[C@H](CCCCN)NC(=O)CCNC(=O)CN1CCN(CC(=O)O)CCN(CC(=O)O)CC1)C(=O)N1CCC[C@H]1C(=O)N1CCC[C@H]1C(=O)NCC(=O)N[C@@H](Cc1ccccc1)C(=O)N[C@@H](CO)C(=O)N1CCC[C@H]1C(=O)N[C@H](Cc1ccccc1)C(=O)O` [MAB2047], the EC50 on hB1R [1] was determined as 2.2 nM. At hB1R [2] (setting [5]), the IC50 is 2.3 nM.
In the case of `CC[C@H](C)[C@H](NC(=O)[C@@H](Cc1ccc2ccccc2c1)NC(=O)[C@H](CO)NC(=O)[C@](C)(Cc1ccccc1)NC(=O)CNC(=O)[C@@H]1CCCN1C(=O)[C@@H]1C[C@@H]2CCCC[C@@H]2N1C(=O)[C@H](CCCNC(=N)N)NC(=O)[C@H](CCCN)NC(=O)CN1CCN(CC(=O)O)CCN(CC(=O)O)CC1)C(=O)O` (natCu complex, metal not drawn) [MAB7090], the IC50 was 9.8 nM and 10 nM at hB1R [1]; 13 nM at hB1R [2] (setting [4]).
